Results: US10687532B2, “Substituted oxadiazoles for combating phytopathogenic fungi” (BASF SE, priority 2015, dated 2020)

Structure (SMILES) | melting point [°C]
O=C(Nc1ccc(-c2noc(C(F)(F)F)n2)cc1)C1CCC1 [Ex-2, N-[4-[5-(trifluoromethyl)-1,2,4-oxadiazol-3-yl]phenyl]cyclobutanecarboxamide] | 183
CN(C(=O)C1CC1)c1ccc(-c2noc(C(F)(F)F)n2)cc1 [Ex-7, N-methyl-N-[4-[5-(trifluoromethyl)-1,2,4-oxadiazol-3-yl]phenyl]cyclopropanecarboxamide] | 98
